This note sets out measurements from US8658637B2, “Glucocorticoid mimetics, methods of making them, pharmaceutical compositions and uses thereof” (Boehringer Ingelheim International GmbH, priority 2006, dated 2014).

Some results are limits rather than exact numbers.

The subject of data set [1] is IL-6 production in human foreskin fibroblast cells. Description: Inhibition of IL-6 Production in Fibroblasts (Cell Assay for Transrepression). In kind it is cell-based. To be noted: IL-1 stimulated human foreskin fibroblasts; for EC50: read-out: agonistic activity (EC50) by inhibiting IL-6 production in Fibroblasts; for Emax: read-out: efficacy by inhibiting IL-6 production in Fibroblasts. The method, then:
2. Inhibition of IL-6 Production in Fibroblasts (Cell Assay for Transrepression)
Human foreskin fibroblast cells produce IL-6 in response to stimulation by proinflammatory cytokine IL-1.
Human foreskin fibroblast cells (ATCC Cat. No. CRL-2429) are plated on 96 well plates at 5,000 cells per well the day before use, in Iscove's Modified Dulbecco's Media (GibcoBRL Life Technologies Cat. No. 12440-053) supplemented with 10% charcoal filtered FBS (Clonetech Cat. No. SH30068) and Gentamycin (GibcoBRL Life Technologies Cat. No. 15710-064). On the next day, media in the wells is replaced with fresh media. Cells are treated with IL-1 (rhIL-1α, R&D Systems Cat. No. 200-LA) to a final concentration of 1 ng/mL, and with test compounds to final concentrations of 10^−5 M to 10^−8 M, in a total volume of 200 μL per well. Samples are done in duplicates. […] Positive control wells receive IL-1 only and represent maximum (or 100%) amount of IL-6 production. Plates are incubated at 37° C. overnight (15 to 18 hours), and supernatants are harvested at the end of incubation. IL-6 levels in the supernatants are determined by the ELISA kits for IL-6 (MedSystems Diagnostics GmbH, Vienna, Austria, Cat. No. BMS213TEN) according to manufacture's instructions. The extent of inhibition of IL-6 by test compounds is expressed in percentage relative to positive controls. IC50 values of test compounds are derived by non-linear curve fitting.

For `OC(c1cnc2c(cnn2-c2ccccc2)c1)(c1c[nH]c2ncccc12)C(F)(F)F` (stereo not shown), the melting point – broadly, the temperature of the solid-liquid transition – is 137 to 141 °C.

On to `NC(=O)Cn1cc(C(O)(c2ccc3c(cnn3-c3cccnc3)c2)C(F)(F)F)c2ccccc21` (stereo not shown) [2-{3-[2,2,2-Trifluoro-1-hydroxy-1-(1-pyridin-3-yl-1H-indazol-5-yl)ethyl]indol-1-yl}acetamide], for which, in data set [1], the concentration giving a half-maximal response (EC50) – broadly, the concentration that produces a half-maximal response – was at most 1 µM and the Emax was over 50%.

Regarding `C=CCCn1cc(C(O)(c2ccc3c(cnn3-c3ccc(F)cc3)c2)C(F)(F)F)c2ccccc21` (stereo not shown) [1-(1-But-3-enyl-1H-indol-3-yl)-2,2,2-trifluoro-1-[1-(4-fluorophenyl)-1H-indazol-5-yl]ethanol], in data set [1], the concentration giving a half-maximal response (EC50) was at most 1 µM and the Emax is over 50%. Take `OC(c1ccc2c(cnn2-c2ccc(F)cc2)c1)(c1cn(CCN2CCOCC2)c2ccccc12)C(F)(F)F` (stereo not shown) [2,2,2-Trifluoro-1-[1-(4-fluorophenyl)-1H-indazol-5-yl]-1-[1-(2-morpholin-4-ylethyl)-1H-indol-3-yl]ethanol]: in data set [1], the EC50 was at most 1 µM and the Emax is over 50%. `Cn1ccc2c(C(O)(c3ccc4c(cnn4-c4ccc(F)cc4)c3)C(F)(F)F)cn(CC(N)=O)c2c1=O` (stereo not shown) [2-(6-Methyl-7-oxo-3-{2,2,2-trifluoro-1-[1-(4-fluorophenyl)-1H-indazol-5-yl]-1-hydroxyethyl}-6,7-dihydropyrrolo[2,3-c]pyridin-1-yl)acetamide]: in data set [1], the half-maximal effective concentration (EC50) was at most 1 µM and the Emax was over 50%. On to `CNC(=O)Cn1cc(C(O)(c2ccc3c(cnn3-c3ccc(F)cc3)c2)C(F)(F)F)c2ccc(Br)cc21` (stereo not shown) [2-(6-Bromo-3-{2,2,2-trifluoro-1-[1-(4-fluorophenyl)-1H-indazol-5-yl]-1-hydroxyethyl}indol-1-yl)-N-methylacetamide], for which, in data set [1], the EC50 was at most 1 µM and the Emax was over 50%. In the same order, the values of `C=CCn1cc(C(O)(c2ccc3c(cnn3-c3ccc(F)cc3)c2)C(F)(F)F)c2ncn(C)c(=O)c21` (stereo not shown) [5-Allyl-3-methyl-7-{2,2,2-trifluoro-1-[1-(4-fluorophenyl)-1H-indazol-5-yl]-1-hydroxyethyl}-3,5-dihydropyrrolo[3,2-d]pyrimidin-4-one] are at most 1 µM and over 50%.

For `OC(c1ccc2c(cnn2-c2ccc(F)cc2)c1)(c1cn(CC2CCCO2)c2ccccc12)C(F)(F)F` (stereo not shown) [2,2,2-Trifluoro-1-[1-(4-fluorophenyl)-1H-indazol-5-yl]-1-[1-(tetrahydro-furan-2-ylmethyl)-1H-indol-3-yl]ethanol], in data set [1], the EC50 was at most 1 µM and the Emax is over 50%. For `C=CCCn1cc(C(O)(c2ccc3c(cnn3-c3ccc(F)cc3)c2)C(F)(F)F)c2ccc(Br)cc21` (stereo not shown) [1-(6-Bromo-1-but-3-enyl-1H-indol-3-yl)-2,2,2-trifluoro-1-[1-(4-fluorophenyl)-1H-indazol-5-yl]ethanol], in data set [1], the concentration for a half-maximal effect (EC50) was at most 1 µM and the Emax is over 50%. For the compound `[O-][n+]1cccc2c(C(O)(c3ccc4c(cnn4-c4ccc(F)cc4)c3)C(F)(F)F)c[nH]c21` (stereo not shown) [2,2,2-Trifluoro-1-[1-(4-fluorophenyl)-1H-indazol-5-yl]-1-(7-oxy-1H-pyrrolo[2,3-b]pyridin-3-yl)ethanol], in data set [1], the concentration giving a half-maximal response (EC50) is at most 1 µM and the Emax is over 50%.

As to `Cc1cc(C(O)(c2ccc3c(cnn3-c3ccc(F)cc3)c2)C(F)(F)F)c[nH]c1=O` (stereo not shown) [3-Methyl-5-{2,2,2-trifluoro-1-[1-(4-fluorophenyl)-1H-indazol-5-yl]-1-hydroxyethyl}-1H-pyridin-2-one], in data set [1], the half-maximal effective concentration (EC50) was at most 1 µM and the Emax was over 50%. On to `C=CCn1cc(C(O)(c2ccc3c(cnn3-c3ccc(F)cc3)c2)C(F)(F)F)c2ccn(C)c(=O)c21` (stereo not shown) [Example 75, 1-Allyl-6-methyl-3-{2,2,2-trifluoro-1-[1-(4-fluorophenyl)-1H-indazol-5-yl]-1-hydroxyethyl}-1,6-dihydropyrrolo[2,3-c]pyridin-7-one], for which the melting point lay within 91 to 93 °C. `C=CCn1cc(C(O)(c2ccc3c(cnn3-c3ccc(F)cc3)c2)C(F)(F)F)cc1C(=O)OCC` (stereo not shown) [1-Allyl-4-{2,2,2-trifluoro-1-[1-(4-fluorophenyl)-1H-indazol-5-yl]-1-hydroxyethyl}-1H-pyrrole-2-carboxylic acid ethyl ester]: in data set [1], the concentration for a half-maximal effect (EC50) was at most 1 µM and the Emax is over 50%. As to `O=C(O)Cn1cc(C(O)(c2ccc3c(cnn3-c3ccc(F)cc3)c2)C(F)(F)F)c2ccccc21` (stereo not shown) [(3-{2,2,2-Trifluoro-1-[1-(4-fluorophenyl)-1H-indazol-5-yl]-1-hydroxyethyl}indol-1-yl)acetic acid], in data set [1], the EC50 is at most 1 µM and the Emax is over 50%. For `OCC(O)CCn1cc(C(O)(c2ccc3c(cnn3-c3ccc(F)cc3)c2)C(F)(F)F)c2ccccc21` (stereo not shown) [4-(3-{2,2,2-Trifluoro-1-[1-(4-fluorophenyl)-1H-indazol-5-yl]-1-hydroxyethyl}indol-1-yl)-butane-1,2-diol], in data set [1], the concentration giving a half-maximal response (EC50) was at most 1 µM and the Emax was over 50%. For the compound `OC(c1ccc2c(cnn2-c2ccc(F)cc2)c1)(c1c[nH]c2ncccc12)C(F)(F)F` (stereo not shown) [2,2,2-Trifluoro-1-[1-(4-fluorophenyl)-1H-indazol-5-yl]-1-(1H-pyrrolo[2,3-b]pyridin-3-yl)ethanol], in data set [1], the concentration giving a half-maximal response (EC50) was at most 1 µM and the Emax is over 50%.

Consider `COc1nccc2c(C(O)(c3ccc4c(cnn4-c4ccc(F)cc4)c3)C(F)(F)F)c[nH]c12` (stereo not shown) [2,2,2-Trifluoro-1-[1-(4-fluorophenyl)-1H-indazol-5-yl]-1-(7-methoxy-1H-pyrrolo[2,3-c]pyridin-3-yl)ethanol], for which, in data set [1], the concentration giving a half-maximal response (EC50) is at most 1 µM and the Emax was over 50%. Consider `Cn1cc(-n2ncc3cc(C(O)(c4cn(C)c5ccccc45)C(F)(F)F)ccc32)cn1` (stereo not shown) [2,2,2-Trifluoro-1-(1-methyl-1H-indol-3-yl)-1-[1-(1-methyl-1H-pyrazol-4-yl)-1H-indazol-5-yl]ethanol], for which, in data set [1], the concentration giving a half-maximal response (EC50) was at most 1 µM and the Emax is over 50%.
